Among the test systems are OVCAR-3 ovarian; UACC-62 melanoma; SR leukemia; SN12C renal; SW-620 colon; SK-MEL-2 melanoma; OVCAR-4 ovarian; HCC-2998 colon; CAKI-1 renal; SNB-75 CNS; OVCAR-5 ovarian; MOLT-4 leukemia; RXF 393 renal; MDA-MB-435; HCT-15 colon; MCF7 breast.
What all share (test): growth of human tumour cells (NCI), 48 h

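96-well plates; 48 h exposure; 5 concentrations. Endpoints by linear interpolation between flanking doses. Not reached: highest tested concentration assigned. GI50 = concentration required for 50% inhibition of growth. TGI is the concentration that stops growth completely.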

Consider `O=C(c1ccccc1)C1S(=O)(=O)OCCOS1(=O)=O`, for which the TGI in the experiment on OVCAR-3 ovarian, in the experiment on UACC-62 melanoma, in the experiment with SR leukemia, in the experiment with SN12C renal, with SW-620 colon and with SK-MEL-2 melanoma was greater than 100 µM each time. The TGI in the experiment on OVCAR-4 ovarian, in the experiment with HCC-2998 colon, in the experiment on CAKI-1 renal and in the experiment on SNB-75 CNS was greater than 100 µM in each case.

As to `c1csc(-c2ccsc2-c2cccs2)c1`, the TGI in the experiment on OVCAR-5 ovarian is greater than 100 µM; with MOLT-4 leukemia, 71.1 µM; with OVCAR-3 ovarian, greater than 100 µM; in the experiment on RXF 393 renal, greater than 100 µM; in the experiment on MDA-MB-435, 53.7 µM; in the experiment with UACC-62 melanoma, greater than 100 µM. In addition, the TGI is 21.3 µM in the experiment on SR leukemia; greater than 100 µM in the experiment with HCT-15 colon; greater than 100 µM in the experiment on SN12C renal; greater than 100 µM in the experiment with SW-620 colon; greater than 100 µM with OVCAR-4 ovarian; greater than 100 µM in the experiment with HCC-2998 colon. For the same compound, the TGI in the experiment with MCF7 breast, in the experiment on CAKI-1 renal and in the experiment on SNB-75 CNS was greater than 100 µM in each case.

For `N#C/C(=C/c1ccc2c(c1)OCO2)C(=O)c1ccccc1`, the TGI in the experiment with OVCAR-5 ovarian, in the experiment on MOLT-4 leukemia, in the experiment with OVCAR-3 ovarian, in the experiment on UACC-62 melanoma, with HCT-15 colon and in the experiment on SN12C renal was greater than 100 µM throughout. In addition, the TGI with SW-620 colon, in the experiment on SK-MEL-2 melanoma, with OVCAR-4 ovarian, with HCC-2998 colon, in the experiment with CAKI-1 renal and in the experiment with SNB-75 CNS was greater than 100 µM each time.

Turning to `C[N+](C)(C)CC(=O)N/N=C(/C(=O)Nc1ccc(Br)cc1)C1C(=O)NC(=O)NC1=O`, the TGI in the experiment on OVCAR-5 ovarian, in the experiment with MOLT-4 leukemia, with OVCAR-3 ovarian, with RXF 393 renal, in the experiment on UACC-62 melanoma and in the experiment on SR leukemia was greater than 100 µM each time. In addition, the TGI in the experiment on HCT-15 colon, with SN12C renal, with SW-620 colon, in the experiment on SK-MEL-2 melanoma, in the experiment with OVCAR-4 ovarian and in the experiment with HCC-2998 colon was greater than 100 µM throughout. Besides, the TGI with CAKI-1 renal and in the experiment with SNB-75 CNS was greater than 100 µM each time.

For `O=C(CSc1nc(-c2ccccc2)c(-c2ccccc2)[nH]1)N/N=C/c1ccc(O)cc1`, the TGI with MOLT-4 leukemia is 70.1 µM; with OVCAR-3 ovarian, 48.4 µM; in the experiment with RXF 393 renal it was 61.4 µM; with UACC-62 melanoma, 54.9 µM; in the experiment on SR leukemia, greater than 100 µM; in the experiment on SN12C renal it was 66.7 µM. Further, the TGI in the experiment with SW-620 colon is greater than 100 µM; in the experiment on SK-MEL-2 melanoma, 67.2 µM; with HCC-2998 colon it was 61.1 µM; with SNB-75 CNS it was 52.7 µM.

Consider `Cc1cc2c(C)n(Cc3ccccc3Cl)nc2c(C(=O)O)c1C`, for which the TGI with OVCAR-5 ovarian, in the experiment on MOLT-4 leukemia, in the experiment with OVCAR-3 ovarian, in the experiment with RXF 393 renal, with UACC-62 melanoma and with SR leukemia was greater than 100 µM in each case. The TGI with HCT-15 colon, in the experiment with SN12C renal, in the experiment with SW-620 colon, in the experiment on SK-MEL-2 melanoma, in the experiment with HCC-2998 colon and in the experiment on SNB-75 CNS was greater than 100 µM throughout.

Turning to `C=C(NC(=O)C(=C)NC(=O)c1csc(C2=NC3c4csc(n4)C4NC(=O)c5csc(n5)C(C(C)(O)C(C)O)NC(=O)C5CSC(=N5)/C(=C/C)NC(=O)C(C(C)O)NC(=O)c5csc(n5)C3(CC2)NC(=O)C(C)NC(=O)C(=C)NC(=O)C(C)NC(=O)C(C(C)CC)NC2C=Cc3c(C(C)O)cc(nc3C2O)C(=O)OC4C)n1)C(N)=O` (stereo not drawn), the TGI in the experiment on OVCAR-5 ovarian was greater than 51.4 µM; with OVCAR-3 ovarian it was greater than 25.8 µM; in the experiment with RXF 393 renal, 0.977 µM; with UACC-62 melanoma, 2.42 µM; in the experiment on HCT-15 colon, greater than 34 µM; in the experiment on SN12C renal it was 3.93 µM. In addition, the TGI in the experiment with SW-620 colon was 1.62 µM; in the experiment with SK-MEL-2 melanoma it was 4.12 µM; in the experiment with OVCAR-4 ovarian it was greater than 100 µM; in the experiment with HCC-2998 colon, greater than 39.9 µM; with MCF7 breast, greater than 100 µM; in the experiment on CAKI-1 renal it was greater than 100 µM. The TGI in the experiment with SNB-75 CNS was greater than 24 µM. Further, the GI50 in the experiment with RXF 393 renal was 0.307 µM; with MCF7 breast, 6.27 µM.

Regarding `O=c1[nH]c2ccccc2nc1/C=C(\O)c1ccccc1O`, the TGI in the experiment with OVCAR-5 ovarian, in the experiment on MOLT-4 leukemia, in the experiment with OVCAR-3 ovarian, with RXF 393 renal, with UACC-62 melanoma and in the experiment on SR leukemia was greater than 100 µM each time. Besides, the TGI with HCT-15 colon, in the experiment with SN12C renal, in the experiment with SW-620 colon, with SK-MEL-2 melanoma, in the experiment with OVCAR-4 ovarian and in the experiment on HCC-2998 colon was greater than 100 µM each time. Moreover, the TGI in the experiment with CAKI-1 renal and in the experiment with SNB-75 CNS was greater than 100 µM in each case.

For `COc1ccc([C@@H]2CC(=O)N2)cc1`, the TGI in the experiment with OVCAR-5 ovarian, in the experiment on MOLT-4 leukemia, in the experiment on RXF 393 renal, in the experiment with UACC-62 melanoma, with SR leukemia and in the experiment with HCT-15 colon was greater than 100 µM throughout. Also, the TGI in the experiment on SN12C renal, in the experiment on SK-MEL-2 melanoma, in the experiment with OVCAR-4 ovarian, with CAKI-1 renal and in the experiment on SNB-75 CNS was greater than 100 µM each time.

For the compound `O=C1/C=C(/c2ccc(O)cc2)[C@@H](O)Cc2ccc(O)cc2O1`, the TGI in the experiment on OVCAR-5 ovarian, with OVCAR-3 ovarian, in the experiment with UACC-62 melanoma, in the experiment with SR leukemia, with HCT-15 colon and in the experiment with SN12C renal was greater than 100 µM in each case. Further, the TGI in the experiment on SW-620 colon, in the experiment on SK-MEL-2 melanoma, in the experiment on OVCAR-4 ovarian and in the experiment with CAKI-1 renal was greater than 100 µM each time.

The values above are taken from PubChem BioAssay (NCI).
